Results published in patent publication US20250289812A1, “COMPOUND FOR TREATING THROMBOTIC DISEASES” (SHANGHAI INSTITUTE OF MATERIA MEDICA, CHINESE ACADEMY OF …, priority 2020, published 2025).
pKd: −log10 of the molar value.

Tests used:
[1] = molecular target: Src kinase SH3 domain protein (Homo sapiens (Human), UniProt P12931); experiment: Surface plasmon resonance (SPR) determination of dissociation constants with SH3 protein; type: binding; settings: SH3 protein coupled to CM5 chip
Method: 1. Experimental method: Surface plasmon resonance test was carried out on BIACORE T200 instrument (GE Company). Fresh purified grade Src kinase SH3 domain protein (concentration 2 mg/ml) was diluted to 0.1 mg/ml with 10 mM CH3COONa (pH 4.2) and then SH3 protein was coupled to the CM5 chip by standard amino coupling methods. The compounds of the invention were diluted in a gradient using a buffer solution (20 mM Tris-HCl, PH 8.0, 100 mM NaCl) for 60 seconds and dissociated for 120 seconds at a flow rate of […], respectively. The changes in response values over time were recorded and analyzed by the BIA Evaluation Software (GE Healthcare) program to obtain the dissociation constants KD for the different compounds with SH3 protein.
2. Experimental results and conclusions: The dissociation constants KD of different compounds and SH3 protein were described in Table 2, and the surface plasmon resonance (SPR) experimental results of some compounds were shown in FIG. 1.

[2] = system: platelets on solid phase fibrinogen; experiment: Effect of compound on platelet stretching on solid phase fibrinogen; type: cell-based; settings: 1 h, washed platelets, incubated 60 min at 37° C., read-out: Concentration range for compounds that inhibit platelet stretching on fibrinogen
Method: 1. Experimental method: Firstly, 50 μl fibrinogen (0.1M, diluted with pH 8.3 sodium bicarbonate, 20 μg/ml) was added to 96-well plate, and coated overnight at 4° C. After being washed by PBS for 3 times in the morning, sealed with bovine serum albumin (20 mg/ml) at 37° C. for 60 min, then 100 μl of washed platelet suspension was taken, and added into compounds in each group to make the final concentration 250 μM, and incubated at 37° C. for 60 min. 50 μl of incubated platelets were added to 96-well plate, adhered in a temperature box at 37° C. for 60 min, unadhered platelets were removed by PBS washing for 3 times, and adhered platelets were stably fixed with 4% paraformaldehyde, and washed with PBS for 3 times. Then the platelet membrane was perforated with 0.5% Triton X-100, and then the platelet was stained with 0.5 μg/ml phalloidin-rhodamine for 60 min at 37° C. and washed 3 times (10 min each) with PBS.
2. Experimental results and conclusions: The concentration of different compounds on platelet stretching on fibrinogen was shown in Table 3, and the inhibitory effect of some compounds on platelet stretching was shown in FIG. 2.

Sequence of Src kinase SH3 domain protein (P12931 whole entry, looked up, the tested form may be a part): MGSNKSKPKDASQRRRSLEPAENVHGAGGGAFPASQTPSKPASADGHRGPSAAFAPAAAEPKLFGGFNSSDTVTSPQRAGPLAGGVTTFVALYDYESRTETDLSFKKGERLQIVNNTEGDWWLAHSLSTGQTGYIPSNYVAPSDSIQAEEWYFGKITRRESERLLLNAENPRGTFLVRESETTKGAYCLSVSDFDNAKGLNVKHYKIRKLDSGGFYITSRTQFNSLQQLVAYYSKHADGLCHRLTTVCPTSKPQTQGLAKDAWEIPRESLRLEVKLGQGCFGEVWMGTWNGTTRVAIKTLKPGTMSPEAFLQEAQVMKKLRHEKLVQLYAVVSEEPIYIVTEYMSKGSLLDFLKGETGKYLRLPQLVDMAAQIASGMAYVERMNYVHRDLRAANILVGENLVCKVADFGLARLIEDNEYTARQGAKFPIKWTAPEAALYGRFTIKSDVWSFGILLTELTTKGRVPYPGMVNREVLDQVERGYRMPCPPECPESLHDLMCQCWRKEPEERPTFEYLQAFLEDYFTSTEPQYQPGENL

Row | pKd [1] | Compound | minimal effective concentration [2]
1 | > 6.00 | CCOC(=O)c1c(CNC(=N)N)sc2cc(-c3cccc4ccccc34)c(Oc3ccncc3)cc12 [SYY-C129] | 10 to 100 µM
2 | 4.00 to 5.00 | CCOC(=O)c1c(CNC(=N)N)sc2cc(-c3cccc4ccccc34)c(C3=CCCc4ccccc43)cc12 [SYY-C130] | 100 to 250 µM
3 | 4.00 to 5.00 | CCOC(=O)c1c(CNC(=N)N)sc2cc(-c3cccc4ccccc34)c(C3CCCc4ccccc43)cc12 (stereo not drawn) [SYY-C131] | 100 to 250 µM
